Molecules are shown by their SMILES. Where a name gives a salt, the structure may show the parent alone.

The assay deals with T1, IRAK4 (Homo sapiens, UniProt Q9NWZ3).
T1 sequence (Q9NWZ3 1-460): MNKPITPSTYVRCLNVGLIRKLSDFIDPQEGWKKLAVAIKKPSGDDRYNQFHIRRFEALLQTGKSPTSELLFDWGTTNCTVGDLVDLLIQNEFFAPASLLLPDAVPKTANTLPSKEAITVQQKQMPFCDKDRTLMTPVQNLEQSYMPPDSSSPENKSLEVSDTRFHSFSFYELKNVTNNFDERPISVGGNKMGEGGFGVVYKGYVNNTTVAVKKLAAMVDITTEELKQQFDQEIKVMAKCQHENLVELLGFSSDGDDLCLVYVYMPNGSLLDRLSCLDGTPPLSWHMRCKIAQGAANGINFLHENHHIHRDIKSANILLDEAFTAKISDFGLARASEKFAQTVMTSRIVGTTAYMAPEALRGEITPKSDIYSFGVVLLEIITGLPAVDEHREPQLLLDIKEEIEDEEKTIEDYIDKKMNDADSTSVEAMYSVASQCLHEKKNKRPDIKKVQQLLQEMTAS
Nature of the assay: 2-hour 1 mM ATP IRAK4 Biochemical assay (as above, but with 100 pM IRAK4 and 1 mM ATP). The note with it: IRAK4 MSD BIOCHEMICAL (1 mM ATP) IC50 (μM), 100 pM IRAK4, 2 hours. On the procedure:
The 2-hour 10 μM ATP Biochemical Assay employs a MesoScale Detection (MSD) format.
The activity is quenched with 11 μl of 70 mM EDTA, pH 8.
To detect the phosphorylated biotinylated peptide substrate, 30 μl of the quenched reaction mixture is added to equivalent wells of a 384 well streptavidin coated MesoScale plate (Meso Scale Discovery #L21SA-1). After a 1 hour incubation of the plate for 1 hour at room temperature with gentle mixing, the plate wells are washed 3 times with 50 mM Tris, pH 7.5, 150 mM NaCl, 0.02% Tween-20.
A 25 μl volume of 1:500 anti-P-Threonine Rabbit polyclonal Antibody plus 1:500 Goat-anti-Rabbit Sulfo Tag Antibody (Meso Scale Discovery R32AB-1) in 50 mM Tris, pH 7.5, 150 mM NaCl, 0.02% Tween-20 plus 2% BSA is then added to each well. After a 1-hour incubation of the plate for 1 hour at room temperature with gentle mixing, the plate wells are washed, 3 times with 50 mM Tris, pH 7.5, 150 mM NaCl, 0.02% Tween-20. A 40 μl volume of 2×MSD Read Buffer (Meso Scale Discovery R92TC-1) is added to each well, and the plate is read immediately in an MSD Plate Reader (Meso Scale Discovery).
The 2-hour 1 mM ATP IRAK4 Biochemical assay was performed as described above, but with 100 pM IRAK4 and 1 mM ATP.
As for `COCc1cc2nc(C3CCOCC3)cn2cc1NC(=O)c1cccc(C(F)F)n1` [Example 314, 6-(difluoromethyl)-N-(7-(methoxymethyl)-2-(tetrahydro-2H-pyran-4-yl)imidazo[1,2-a]pyridin-6-yl)picolinamide], the IC50 – broadly, the midpoint of a concentration-inhibition curve – stood at 0.013 µM.
Next, `CC(C)Oc1cc2nc(C3CCOCC3)cn2cc1NC(=O)c1cc2ncccn2n1` [Example 382, N-(7-isopropoxy-2-(tetrahydro-2H-pyran-4-yl)imidazo[1,2-a]pyridin-6-yl)pyrazolo[1,5-a]pyrimidine-2-carboxamide 2,2,2-trifluoroacetate]: 0.022 µM; `Cc1cc(NC(=O)c2cccc(C(F)F)n2)cn2cc(C34COC(C)(C3)C4)nc12` [Example 406, 6-(difluoromethyl)-N-(8-methyl-2-(1-methyl-2-oxabicyclo[2.1.1]hexan-4-yl)imidazo[1,2-a]pyridin-6-yl)picolinamide]: 0.032 µM.
The molecule `CC(C)Oc1nc2nc(C34COC(C)(C3)C4)c(Cl)n2cc1NC(=O)c1cccc(C(F)F)n1` [Example 576, N-(3-chloro-7-isopropoxy-2-(1-methyl-2-oxabicyclo[2.1.1]hexan-4-yl)imidazo[1,2-a]pyrimidine-6-yl)-6-(difluoromethyl)picolinamide 2,2,2-trifluoroacetate] displayed an IC50 of 0.199 µM.
With `CCOc1cc(NC(=O)c2cccc(C(F)(F)F)n2)cn2cc(C3CCOCC3)nc12` [Example 415, N-(8-ethoxy-2-(tetrahydro-2H-pyran-4-yl)imidazo[1,2-a]pyridin-6-yl)-6-(trifluoromethyl)picolinamide hydrochloride], half-maximal inhibition (IC50) was put at 0.033 µM.
Molecule `Cc1cc(NC(=O)c2ccn(C)n2)cn2cc(C34COC(C)(C3)C4)nc12` [Example 409, 1-methyl-N-(8-methyl-2-(1-methyl-2-oxabicyclo[2.1.1]hexan-4-yl)imidazo[1,2-a]pyridin-6-yl)-1H-pyrazole-3-carboxamide 2,2,2-trifluoroacetate] gave an IC50 of 0.534 µM.
Next, `COc1ncccc1C(=O)Nc1cn2cc(C34COC(C)(C3)C4)nc2c(OC(C)C)n1` [Example 337, N-(8-isopropoxy-2-(1-methyl-2-oxabicyclo[2.1.1]hexan-4-yl)imidazo[1,2-a]pyrazin-6-yl)-2-methoxynicotinamide]: 0.006 µM; `CC(C)Oc1cc2nc(C3CC3)cn2cc1NC(=O)c1cccc(C(F)F)n1` [Example 526, N-(2-cyclopropyl-7-isopropoxyimidazo[1,2-a]pyridin-6-yl)-6-(difluoromethyl)picolinamide]: 0.001 µM.
In turn, `COCCn1ccc(C(=O)Nc2cn3cc(C4CCOCC4)nc3cc2OC(C)C)n1` [Example 383, N-(7-isopropoxy-2-(tetrahydro-2H-pyran-4-yl)imidazo[1,2-a]pyridin-6-yl)-1-(2-methoxyethyl)-1H-pyrazole-3-carboxamide 2,2,2-trifluoroacetate] displayed an IC50 of 0.014 µM.
Regarding `CCOc1cc(NC(=O)c2cccc(C(F)(F)F)n2)cn2cc(C3CCCOC3)nc12` (single isomer, unassigned) [Example 287, N-(8-ethoxy-2-(tetrahydro-2H-pyran-3-yl)imidazo[1,2-a]pyridin-6-yl)-6-(trifluoromethyl)picolinamide], half-maximal inhibition (IC50) was put at 0.006 µM.
Take `COc1ccccc1C(=O)Nc1cn2cc(C34COC(C)(C3)C4)nc2c(F)c1OC(C)C` [Example 424, N-(8-fluoro-7-isopropoxy-2-(1-methyl-2-oxabicyclo[2.1.1]hexan-4-yl)imidazo[1,2-a]pyridin-6-yl)-2-methoxybenzamide 2,2,2-trifluoroacetate]: the IC50 was 0.017 µM.
On to `O=C(Nc1cn2cc(C3CCOCC3)nc2cc1OCC1CC12CCOC2)c1cccc(C(F)F)n1` (centres unmarked) [Example 194, N-(7-((5-oxaspiro[2.4]heptan-1-yl)methoxy)-2-(tetrahydro-2H-pyran-4-yl)imidazo[1,2-a]pyridin-6-yl)-6-(difluoromethyl)picolinamide], for which the IC50 came out at 0.002 µM.
Consider `CCOc1cc2nc(C3C4COCC43)cn2cc1NC(=O)c1ccn(C2CC2(F)F)n1` (centres unmarked) [Example 374, N-(2-(3-oxabicyclo[3.1.0]hexan-6-yl)-7-ethoxyimidazo[1,2-a]pyridin-6-yl)-1-(2,2-difluorocyclopropyl)-1H-pyrazole-3-carboxamide], for which inhibition was half-maximal at 0.002 µM (IC50).
Next, `CCOc1cc2nc(CC3CCS(=O)(=O)C3)cn2cc1NC(=O)c1cccc(C(F)F)n1` (centres unmarked) [Example 257, 6-(difluoromethyl)-N-(2-((1,1-dioxidotetrahydrothiophen-3-yl)methyl)-7-ethoxyimidazo[1,2-a]pyridin-6-yl)picolinamide]: 0.001 µM; `COc1nc(NC(=O)c2cccc(C)c2F)cn2cc(C34COC(C)(C3)C4)nc12` [Example 444, 2-fluoro-N-(8-methoxy-2-(1-methyl-2-oxabicyclo[2.1.1]hexan-4-yl)imidazo[1,2-a]pyrazin-6-yl)-3-methylbenzamide]: 0.039 µM.
With `COc1nc(NC(=O)c2cccc(C3CC3)n2)cn2cc(C3CCOCC3)nc12` [Example 334, 6-cyclopropyl-N-(8-methoxy-2-(tetrahydro-2H-pyran-4-yl)imidazo[1,2-a]pyrazin-6-yl)picolinamide], the IC50 was 0.008 µM.
With `COc1cc(NC(=O)c2csc(C3CC3)n2)cn2cc(C3CCOCC3)nc12` [Example 244, 2-cyclopropyl-N-(8-methoxy-2-(tetrahydro-2H-pyran-4-yl)imidazo[1,2-a]pyridin-6-yl)thiazole-4-carboxamide] the figure was 0.028 µM; with `CC12CC(c3cn4cc(NC(=O)c5coc(C(F)F)n5)nc(OC5CCC5)c4n3)(CO1)C2` [Example 485, N-(8-cyclobutoxy-2-(1-methyl-2-oxabicyclo[2.1.1]hexan-4-yl)imidazo[1,2-a]pyrazin-6-yl)-2-(difluoromethyl)oxazole-4-carboxamide 2,2,2-trifluoroacetate], 0.037 µM; with `COc1c(F)cccc1C(=O)Nc1cc(C)c2nc(C34COC(C)(C3)C4)cn2c1` [Example 407, 3-fluoro-2-methoxy-N-(8-methyl-2-(1-methyl-2-oxabicyclo[2.1.1]hexan-4-yl)imidazo[1,2-a]pyridin-6-yl)benzamide], 0.732 µM.
Next, `CCOc1cc2nc([C@@H]3C[C@@H]3F)cn2cc1NC(=O)c1cccc(C(F)F)n1` (relative stereo) [Example 519, Cis 6-(difluoromethyl)-N-(7-ethoxy-2-(2-fluorocyclopropyl)imidazo[1,2-a]pyridin-6-yl)picolinamide hydrochloride]: 0.008 µM; `CC(C)Oc1nc2nc(C34COC(C)(C3)C4)cn2cc1NC(=O)c1ccnc2ccnn12` [Example 495, N-(7-isopropoxy-2-(1-methyl-2-oxabicyclo[2.1.1]hexan-4-yl)imidazo[1,2-a]pyrimidin-6-yl)pyrazolo[1,5-a]pyrimidine-7-carboxamide]: 0.007 µM; `CC(C)Oc1nc(NC(=O)c2ccnc3ccnn23)cn2cc(C34COC(C)(C3)C4)nc12` [Example 481, N-(8-isopropoxy-2-(1-methyl-2-oxabicyclo[2.1.1]hexan-4-yl)imidazo[1,2-a]pyrazin-6-yl)pyrazolo[1,5-a]pyrimidine-7-carboxamide]: 0.025 µM.
Consider `CCC(C)Oc1c(NC(=O)c2cccnc2OC)cn2cc(C34COC(C)(C3)C4)nc2c1F` (single isomer, unassigned) [Example 327, N-(7-(sec-butoxy)-8-fluoro-2-(1-methyl-2-oxabicyclo[2.1.1]hexan-4-yl)imidazo[1,2-a]pyridin-6-yl)-2-methoxynicotinamide], for which half-maximal inhibition (IC50) was put at 0.02 µM.
In turn, `CC(C)Oc1cc2nc(C3CCOCC3)c(F)n2cc1NC(=O)c1cccc(C(F)F)n1` [Example 352, 6-(difluoromethyl)-N-(3-fluoro-7-isopropoxy-2-(tetrahydro-2H-pyran-4-yl)imidazo[1,2-a]pyridin-6-yl)picolinamide] registered an IC50 of 0.001 µM.
As for `CCC(C)Oc1c(NC(=O)c2cccnc2OC)cn2cc(C34COC(C)(C3)C4)nc2c1F` (single isomer, unassigned) [Example 328, N-(7-(sec-butoxy)-8-fluoro-2-(1-methyl-2-oxabicyclo[2.1.1]hexan-4-yl)imidazo[1,2-a]pyridin-6-yl)-2-methoxynicotinamide], half-maximal inhibition (IC50) was put at 0.004 µM.
Take `C[C@@H]1C[C@H](Oc2cc3nc(C4CCOCC4)cn3cc2NC(=O)c2cccc(C(F)F)n2)C[C@H](C)O1` [Example 187, 6-(difluoromethyl)-N-(7-(((2R*,4R*,6S*)-2,6-dimethyltetrahydro-2H-pyran-4-yl)oxy)-2-(tetrahydro-2H-pyran-4-yl)imidazo[1,2-a]pyridin-6-yl)picolinamide]: the IC50 worked out at 0.001 µM.
